Structures are written as SMILES. Values joined by “and” are separate entries in the source; they are usually repeats but may differ in a detail not shown here. Equal values may be shown once. “Also recorded” adds a separate entry of the source.

Data set [1] addresses T1, Trpv2 (Rattus norvegicus, UniProt Q9WUD2).
T1 sequence (Q9WUD2 1-761): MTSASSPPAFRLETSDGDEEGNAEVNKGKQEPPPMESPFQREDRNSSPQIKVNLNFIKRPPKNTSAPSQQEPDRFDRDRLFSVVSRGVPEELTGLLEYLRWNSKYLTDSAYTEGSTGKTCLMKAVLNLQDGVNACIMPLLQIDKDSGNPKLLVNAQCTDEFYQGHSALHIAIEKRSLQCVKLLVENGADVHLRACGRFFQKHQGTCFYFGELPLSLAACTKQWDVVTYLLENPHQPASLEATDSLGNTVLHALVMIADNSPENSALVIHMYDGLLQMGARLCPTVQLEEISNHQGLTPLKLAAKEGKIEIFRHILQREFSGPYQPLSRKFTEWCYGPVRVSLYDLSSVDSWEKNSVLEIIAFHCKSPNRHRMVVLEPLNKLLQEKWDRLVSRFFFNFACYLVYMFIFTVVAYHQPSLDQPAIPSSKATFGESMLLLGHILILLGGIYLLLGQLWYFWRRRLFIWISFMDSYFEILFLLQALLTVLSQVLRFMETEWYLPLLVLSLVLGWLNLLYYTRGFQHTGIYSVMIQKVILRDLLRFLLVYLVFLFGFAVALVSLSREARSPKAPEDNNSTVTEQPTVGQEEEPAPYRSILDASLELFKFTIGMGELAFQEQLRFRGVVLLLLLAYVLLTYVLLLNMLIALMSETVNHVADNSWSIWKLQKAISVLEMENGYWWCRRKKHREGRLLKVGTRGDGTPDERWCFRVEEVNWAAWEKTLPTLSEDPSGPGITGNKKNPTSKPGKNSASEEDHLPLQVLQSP
In words: Intracellular calcium influx (Fluo-4 NW) in DA FLS. Details: endogenous in cells; host or cells: fibroblast-like synoviocytes (FLS) from DA rats. In kind it is cell-based. Particulars: for Intracellular calcium influx vs untreated and vehicle: increasing concentrations, two DA FLS cell lines. The method, then: Intracellular calcium influx was measured using the Fluo-4 NW calcium assay kit (Molecular Probes/Invitrogen) according to the manufacturer's instructions, as previously described (Laragione et al., “CXCL10 and its Receptor CXCR3 Regulate Synovial Fibroblast Invasion in Rheumatoid Arthritis,” Arthritis Rheum. 63 (11):3274-3283 (2011), which is hereby incorporated by reference in its entirety). Briefly, DA FLS were plated at a density of 4,500 cells/well in a 96-well plate (100 μl volume of complete media per well). After cell adhesion the media was changed to serum-free media for overnight culture. Serum-free media was then replaced with 50 μl of dye loading solution, followed by incubation at 37° C. for 30 minutes and a baseline fluorimetric reading. Then, O1821, LER13, or vehicle were added to their respective wells at different concentrations and fluorescence read immediately in a Fluoroskan Ascent Microplate Fluorometer (Thermo Scientific) with settings appropriate for excitation at 494 nm and emission at 516 nm.
For orientation: A change in cytosolic calcium serves as a functional read-out for many receptors and channels.

Data set [2] deals with FLS from a C57BL/6 mouse with KRN serum-induced arthritis. The data set is described as follows: Matrigel transwell invasion assay, mouse FLS. In kind it is cell-based. Particulars: 10 μM, one cell line in triplicate. The method, then: The in vitro invasiveness of FLS was assayed in a transwell system using Matrigel-coated inserts (BD Biosciences, Franklin Lakes, N.J.), as previously described (Tolboom et al., “Invasiveness of Fibroblast-Like Synoviocytes is an Individual Patient Characteristic Associated with the Rate of Joint Destruction in Patients with Rheumatoid Arthritis,” Arthritis Rheum. 52 (7):1999-2002 (2005); Laragione et al., “The Arthritis Severity Locus Cia5d is a Novel Genetic Regulator of the Invasive Properties of Synovial Fibroblasts,” Arthritis Rheum. 58 (8):2296-2306 (2008), which are hereby incorporated by reference in their entirety). Briefly, 70-80% confluent cells were harvested by trypsin-EDTA digestion, and re-suspended at 2.0×10^4 cells in 500 μl of serum-free DMEM. Cells were placed in the upper compartment of the Matrigel-coated inserts. Where indicated, O1821, LER13, or vehicle was added to the upper chamber. The lower compartment was filled with complete media and the plates were incubated at 37° C. for 24 hours. After 24 hours the upper surface of the insert was wiped with cotton-swabs to remove non-invading cells and the Matrigel layer. The opposite side of the insert was stained with Crystal Violet (Sigma) and the total number of cells that invaded through Matrigel counted at 100× magnification. […]

For data set [3], the system named is FLS from DA rats with PIA. The data set is described as follows: Matrigel transwell invasion assay, FLS from DA rats with PIA (incl. siRNA knock-down). In kind it is cell-based, rat. Particulars: for Reduction of FLS invasion: DA cells, overnight. The protocol: The in vitro invasiveness of FLS was assayed in a transwell system using Matrigel-coated inserts (BD Biosciences, Franklin Lakes, N.J.), as previously described (Tolboom et al., “Invasiveness of Fibroblast-Like Synoviocytes is an Individual Patient Characteristic Associated with the Rate of Joint Destruction in Patients with Rheumatoid Arthritis,” Arthritis Rheum. 52 (7):1999-2002 (2005); Laragione et al., “The Arthritis Severity Locus Cia5d is a Novel Genetic Regulator of the Invasive Properties of Synovial Fibroblasts,” Arthritis Rheum. 58 (8):2296-2306 (2008), which are hereby incorporated by reference in their entirety). Briefly, 70-80% confluent cells were harvested by trypsin-EDTA digestion, and re-suspended at 2.0×10^4 cells in 500 μl of serum-free DMEM. Cells were placed in the upper compartment of the Matrigel-coated inserts. Where indicated, O1821, LER13, or vehicle was added to the upper chamber. The lower compartment was filled with complete media and the plates were incubated at 37° C. for 24 hours. After 24 hours the upper surface of the insert was wiped with cotton-swabs to remove non-invading cells and the Matrigel layer. The opposite side of the insert was stained with Crystal Violet (Sigma) and the total number of cells that invaded through Matrigel counted at 100× magnification. Experiments were done in duplicate.
Dharmacon SMARTpool siRNA targeting Trpv2, Gapdh, or a non-coding control were purchased from Thermo Scientific (Lafayette, Colo.) and transfected into DA FLS according to the manufacturer's instructions. Cells were then incubated at 37° C. for 72 hours prior to initiating the invasion assays. Knock-down was confirmed with qPCR and Western blot.

A further data set concerns FLS. The data set is described as follows: MTT assay. Particulars: 24 hours, concentrations of the invasion studies. In kind it is cell-based. The protocol:
4×10^4 FLS per well were plated in triplicate in 96-well plates in 100 μl of complete media. Cells were allowed to adhere for 24 hours. Media was then changed and O1821, LER13, or vehicle was added at the same concentrations used for the invasion studies. After 24 hours (same duration of the invasion experiments) viable cells were determined by the colorimetric MTT kit (Millipore) according to the manufacturer's instructions.

In another data set the test system is glioblastoma cell line. In words: Cancer cell invasion, glioblastoma. In kind it is cell-based.
Data set [4] deals with Trpv2. Conditions: cited from earlier work.

On to `C#Cc1cc(O)c(C2C=C(C)CCC2C(=C)C)c(O)c1C1C=C(C)CCC1C(=C)C` [Compound 13, (1R,2″R,2R,2″S)-6′-ethynyl-5,5″-dimethyl-2,2″-di(prop-1-en-2-yl)-1,1″,2,2″,3,3″,4,4″-octahydro-[1,1′:3′,1″-terphenyl]-2′,4′-diol], for which the “Calcium influx higher compared with O1821” value at Trpv2 [1] (DA FLS) is given as approximately 30%. On Trpv2 [1], the “Intracellular calcium influx vs untreated and vehicle” value is given as “significantly increased intracellular calcium influx”. Besides, on Trpv2 [1] (measured over 200 seconds, compared with O1821), the Calcium influx entry is recorded as “increased (30% greater than O1821)”. Further, the “Reduction in invasion vs control vehicle” value in data set [2] (listed as LER13) was 65% and 75%. Also, the “Suppression of FLS invasion” value in data set [3] (10 μM, non-transfected, siRNA control and siRNA GAPDH DA FLS, listed as LER13) is 65% and 60%. Moreover, in data set [3] (siRNA Trpv2 transfected FLS, listed as LER13), the “Suppression of FLS invasion after Trpv2 siRNA knock-down” value was “non-responsive; also recorded: not responsive or suppressed”.
Regarding `C=C(C)[C@@H]1CCC(C)=C[C@H]1c1c(O)cc(C)cc1O` [Compound O1821], the “Toxicity to FLS (cell mortality)” value in the data set on FLS is on record as “not toxic”. The Cell invasion result in the data set with glioblastoma cell line is “significantly reduce cell invasion”. Moreover, the “Intracellular calcium influx vs untreated and vehicle” value at Trpv2 [1] is reported as “significant dose-dependent increase; also recorded: significantly increased intracellular calcium influx”. In addition, in data set [2], the “Reduction in invasion vs control vehicle” value is recorded as 65%. The “Reduction of FLS invasion” value came to 80% in data set [3] (1 μM) and 99.4% in data set [3] (10 μM). Also, in the data set with Trpv2 [4], the “Stimulation of Trpv2” value was “stimulates”.

Source of the values: patent US20200277246A1, “TREATMENT METHOD, COMPOUNDS, AND METHOD OF INCREASING TRPV2 ACTIVITY” (THE FEINSTEIN INSTITUTE FOR MEDICAL RESEARCH, priority 2015, published 2020).
